The test system of data set [1] is naturally emmetropic and presbyopic subjects. The experiment in a line: Example 13 crossover trial: pupil size (Colvard infrared pupilometer) (Table 13). In kind it is in vivo, human. Particulars: for PS 1-h / PS 2-h / PS 4-h / PS 8-h / PS Pre-treatment: mean pupil size, ten subjects; for PS Pre-treatment: before treatment. The text has this: (§1) Participants were randomly selected volunteers. […] None of the patients included in the study had received any topical medication that could cause pupil mydriasis or miosis. […] All procedures followed were in accordance with the ethical standards of the responsible committee on human experimentation.
(§2) The 3% carbachol drops included 50 ppm of benzalkonium chloride.

Data set [2] has the same test system. The data set is described as follows: Example 13 crossover trial, combined vs separate carbachol and brimonidine drops: near visual acuity (Rosenbaum chart, Jaeger notation) (Table 13). In kind it is in vivo, human. As to conditions: for NVA 1-h / NVA 2-h / NVA 4-h / NVA 8-h / NVA Pre-treatment: mean ± SD, ten subjects; for NVA Pre-treatment: before treatment.
Source text: as §1, §2

A further data set deals with myopic presbyopes. As to conditions: Group 2.
Another data set deals with presbyopic subjects. Particulars: subjects receiving brimonidine drops.
The test system of data set [3] is presbyopia subjects. The experiment in a line: Example 8 dose range studies of carbachol and pilocarpine with or without brimonidine: near LogMAR visual acuity.
Procedure: Dose range studies were performed for carbachol and pilocarpine.
Both Groups 1 and 2 received the same pre- and post-treatment work-up and measurements: Age, gender, initial pupil size, and near vision acuity (NVA) were documented. Subjects' NVA was measured post treatment at 1, 2, 4, and 8 hours, at the same room illumination Any adverse symptoms and subject satisfaction with near and distance vision were documented.
Another data set relates to emmetropic presbyopes. Particulars: Group 1.
Data set [4] deals with naturally emmetropic and presbyopic subjects. As to conditions: combination, separate, brimonidine alone, carbachol alone; FIG. 11. The protocol:
Participants were volunteers selected at random.
The study used standard Snellen projector chart to measure distance visual acuity. Near visual acuity was assessed at 40 cm using Jaeger (J) Eye Chart. Statistical analysis was performed using the Student's t-test and p value of less than 0.05 was considered statistically significant. Data was expressed as mean, range, and standard deviation (SD).

Another data set concerns hyperopic presbyopes. The experiment in a line: Example 6 masked study: near visual acuity (Jaeger Eye Chart), Group 3, both eyes (Tables 9, 10).
Data set [5] concerns patients suffering from presbyopia. The data set is described as follows: Example 4 preliminary evaluation: near visual acuity after pilocarpine alone or with brimonidine (Table 1 dosages, FIG. 1). In kind it is in vivo, human. Particulars: individual patients. The text has this:
Initially, 10 patients were selected for preliminary evaluation. […] All six dosages provided some (varying) initial improvement in visual acuity. However, the effect of formulations containing pilocarpine alone appears to wear out fairly quickly whereas it takes longer time for effects of formulations containing both drugs to wear out.

For data set [6] the test system is unchanged. The data set is described as follows: Table 11: pupil diameter after pilocarpine alone or pilocarpine plus brimonidine. In kind it is in vivo, human. Particulars: individual patients.
Data set [7] concerns presbyopia subjects. The experiment in a line: Example 8 dose range studies: adverse symptoms, tolerability and satisfaction survey. In kind it is in vivo, human. The text has this: The survey asked the patients whether they would use the drops again.
Data set [8] can be described thus: Stability of pilocarpine at neutral pH. In kind it is physicochemical. Particulars: needs about pH 5.

Where “and” joins values, the source holds several entries; their conditions need not be identical. Identical values can stand only once.

The results in this text go back to patent US20220175734A1, “USING PARASYMPATHOMIMETIC DRUGS ALONE OR, IN COMBINATION WITH ONE OR MORE ALPHA AGONISTS IN PSEUDOPHAKIC PATIENTS, TO CREATE MULTI-FOCALITY” (Visus Therapeutics, Inc., priority 2019, published 2022).

Source text for emmetropic presbyopes: (§3) The study evaluated in a blind study the efficacy of using of a parasympathomimetic drug of different concentrations together with an alpha agonist to create optically beneficial miosis to temporarily treat different types of presbyopia (emmetropic, myopic and hyperopic).
(§4) One hundred and seventy seven presbyopic subjects with a mean age of 49.8±3.9 years (range 41-57 years); 96 males and 81 females were recruited in this study. The participants in the study all gave written informed consent. […] During the study, the subjects were closely monitored and regularly asked to report on any ocular, systemic, or physiological reactions they experienced. […]
(§5) Initial pupil size and both near and distance visual acuities were documented before treatment and at 1, 2, 4, 8 and 10 hours after treatment at the same room illumination. Subjects were monitored and subjected to complete ocular examination including visual acuity evaluation and slit-lamp biomicroscopy after one week of treatment and monthly during the first three months to evaluate dosage, satisfaction, adverse effects and complications (for instance, retinal detachment, pigment dispersion, posterior synechiae and intraocular inflammation). […] Distance visual acuity was measured using the standard Snellen projector chart. […] Any adverse symptoms and subject satisfaction with near and distance vision were also monitored. […]
Source text for hyperopic presbyopes: as §3, §4, §5
Source text for myopic presbyopes: as §3, §4, §5

Regarding `C[N+](C)(C)CCOC(N)=O` [3% carbachol alone, carbachol], in data set [1] (1 h post-treatment), the “mean pupil size (PS)” value is recorded as 2.8±0.3 mm and the “PS 1-h” value amounted to 2.8 ± 0.3 mm. In addition, in data set [1] (2 h post-treatment), the “mean pupil size (PS)” value worked out at 3±0.3 mm and the “PS 2-h” value was 3 ± 0.3 mm. Moreover, in data set [1] (4 h post-treatment), the “mean pupil size (PS)” value was found to be 3.5±0.3 mm and the “PS 4-h” value is 3.5 ± 0.3 mm. Further, in [1] (8 h post-treatment), the “mean pupil size (PS)” value is recorded as 4±0.3 mm and the “PS 8-h” value came to 4 ± 0.3 mm. Besides, the “mean pupil size (PS)” value in [1] (before treatment (baseline)) amounted to 4.3±0.5 mm. The “mean pupil size (target)” value in [1] (hours 1-8, FIG. 24) is “never achieved the target pupil size”. Further, the “PS Pre-treatment” value in data set [1] is listed as 4.3 ± 0.5 mm. For the same molecule, in data set [2] (1 h post-treatment), the “mean near visual acuity (NVA)” value stood at 5.5 ± 1 J and the “NVA 1-h” value came out at 5.5 ± 1 J. Further, in [2] (2 h post-treatment), the “mean near visual acuity (NVA)” value came out at 5.9 ± 0.8 J and the “NVA 2-h” value was 5.9 ± 0.8 J. In data set [2] (4 h post-treatment), the “mean near visual acuity (NVA)” value is 7 ± 1.2 J and the “NVA 4-h” value is 7 ± 1.2 J. In addition, in data set [2] (8 h post-treatment), the “mean near visual acuity (NVA)” value came to 7.5 ± 1 J and the “NVA 8-h” value stood at 7.5 ± 1 J. For the same molecule, the “mean near visual acuity (NVA)” value in [2] (before treatment (baseline)) came out at 8.6 ± 1.5 J. The “mean near visual acuity (NVA) (target)” value in data set [2] (hours 1-8, Snellen fraction, FIG. 25) is reported as “never achieved an NVA of ≥20/40”. The “NVA Pre-treatment” value in data set [2] was 8.6 ± 1.5 J.

In the case of `Brc1c(NC2=NCCN2)ccc2nccnc12` [Brimonidine 0.2%, brimonidine], the “difference in mean NVA before treatment vs any time point after treatment” value is reported as “No statistically significant difference” in the data set on myopic presbyopes, “No statistically significant difference” in the data set with emmetropic presbyopes, “no statistically significant difference” in [2] (P>0.05) and “No statistically significant difference” in the data set with hyperopic presbyopes. Also, in the data set with presbyopic subjects, the “mild burning sensation, number of subjects” value was determined as 10 subjects. In addition, the synergy entry with presbyopia subjects [3] (in vivo) is “synergistic with both carbachol and pilocarpine”. Also, in data set [4], the “mean change in near visual acuity (J), comparison of all groups” value was “the least”. In data set [1] (P>0.05), the “difference in mean PS before treatment vs any time point after treatment” value is given as “no statistically significant difference”. Also, the miotic effect result in data set [1] (mainly first hour after instillation, light luminance, not statistically significant (P>0.05)) was “mild miotic effect”. Further, the “PS 1-h” value in data set [1] (1 h post-treatment) was 3.95 ± 0.5 mm. Further, in [1] (2 h post-treatment), the “PS 2-h” value worked out at 4.2 ± 0.4 mm. Moreover, the “PS 4-h” value in [1] (4 h post-treatment) was 4.3 ± 0.5 mm. Besides, the “PS 8-h” value in data set [1] (8 h post-treatment) is recorded as 4.3 ± 0.5 mm. Further, the “PS Pre-treatment” value in [1] was 4.3 ± 0.5 mm. For the same molecule, the “effect on pupil size or NVA” value in data set [1] (with 50 ppm BAK) is “virtually no effect”. Further, the “NVA 1-h” value in data set [2] (1 h post-treatment) came to 7.7 ± 1.3 J. The “NVA 2-h” value in data set [2] (2 h post-treatment) is 8.2 ± 1.3 J. Further, the “NVA 4-h” value in data set [2] (4 h post-treatment) is on record as 8.5 ± 1.4 J. The “NVA 8-h” value in [2] (8 h post-treatment) worked out at 8.6 ± 1.5 J. Moreover, the “NVA Pre-treatment” value in data set [2] came to 8.6 ± 1.5 J.

As for `CC[C@@H]1C(=O)OC[C@@H]1Cc1cncn1C` [Pilo Alone], in data set [5] (Pilo 0.5%), the “nVA(j) 1 hr” value is 3 j (2×) and 6 j and 5 j; the “nVA(j) 2 hrs” value is 5 j (2×) and 3 j (2×); the “nVA(j) 4 hrs” value was 5 j (3×) and 3 j. In data set [5] (Pilo 1%), the “nVA(j) 1 hr” value is 3 j (2×) and 2 j and 8 j; the “nVA(j) 2 hrs” value is 3 j and 2 j (2×) and 8 j; the “nVA(j) 4 hrs” value was 5 j (2×) and 3 j and 10 j. Also, the “Pre-Treatment Near Va” value in data set [5] (before treatment) was 6 j (4×) and 5 j (4×) and 8 j (2×) and 10 j and 3 j. In data set [6] (Pilo 0.5%), the “pupil 1 hr” value was 2.5 and 3.8 and 3 (2×); the “pupil 2 hrs” value is 3 and 4 and 2.5 and 3.3; the “pupil 4 hrs” value is 3.3 and 4 and 3 and 4.2. In addition, in [6] (Pilo 1%), the “pupil 1 hr” value was 2.5 (2×) and 1.5 and 3; the “pupil 2 hrs” value is 3 (2×) and 1.5 and 2.5; the “pupil 4 hrs” value was 4 (2×) and 2.5 and 3. For the same molecule, the “pupil 4 hrs” value in data set [6] (Pilo […]) worked out at 4. For the same molecule, the “Pre-Treatment Pupil Diam O.S.” value in data set [6] (before treatment, left eye) was 4 (2×) and 4.3 and 3.5 (2×) and 5 and 3.9 and 3 and 4.5 (3×) and 5.4. Moreover, the “Pre-Treatment Pupil Diam O.D.” value in data set [6] (before treatment, right eye) was 4 (3×) and 3.5 (2×) and 5 and 4.3 and 3 and 4.5 (3×) and 5.5.

Regarding `C[N+](C)(C)CCOC(N)=O` [carbachol], the duration in the data set with presbyopia subjects [3] (in vivo) was determined as 8 h. Moreover, in the data set with presbyopia subjects [7] (over seven days, FIG. 15), the “tolerability / discomfort vs carbachol concentration” value is listed as “caused some increased discomfort”.

In the case of `CC[C@@H]1C(=O)OC[C@@H]1Cc1cncn1C` [pilocarpine], the onset of effect entry in the data set with presbyopia subjects [3] (pilocarpine vs carbachol) is “more immediate effect”. Besides, in the data set on presbyopia subjects [3] (pilocarpine vs carbachol, in words), the duration result is given as “shorter duration”. Besides, the “stability at neutral pH” value in data set [8] is “unstable at neutral pH”. The burning result in the data set on presbyopia subjects [7] (in vivo) is recorded as “burned”.
